Eleven compounds from US20250320206A1, “STAT6 DEGRADERS” (Gilead Sciences, Inc., priority 2024, published 2025) can be followed below.

The target of one assay is T1, STAT6 (Homo sapiens, UniProt P42226).
T1 construct: These cells express endogenous STAT6; host or cells: HeLa LgBiT clone 4.14
T1 sequence (P42226 1-847): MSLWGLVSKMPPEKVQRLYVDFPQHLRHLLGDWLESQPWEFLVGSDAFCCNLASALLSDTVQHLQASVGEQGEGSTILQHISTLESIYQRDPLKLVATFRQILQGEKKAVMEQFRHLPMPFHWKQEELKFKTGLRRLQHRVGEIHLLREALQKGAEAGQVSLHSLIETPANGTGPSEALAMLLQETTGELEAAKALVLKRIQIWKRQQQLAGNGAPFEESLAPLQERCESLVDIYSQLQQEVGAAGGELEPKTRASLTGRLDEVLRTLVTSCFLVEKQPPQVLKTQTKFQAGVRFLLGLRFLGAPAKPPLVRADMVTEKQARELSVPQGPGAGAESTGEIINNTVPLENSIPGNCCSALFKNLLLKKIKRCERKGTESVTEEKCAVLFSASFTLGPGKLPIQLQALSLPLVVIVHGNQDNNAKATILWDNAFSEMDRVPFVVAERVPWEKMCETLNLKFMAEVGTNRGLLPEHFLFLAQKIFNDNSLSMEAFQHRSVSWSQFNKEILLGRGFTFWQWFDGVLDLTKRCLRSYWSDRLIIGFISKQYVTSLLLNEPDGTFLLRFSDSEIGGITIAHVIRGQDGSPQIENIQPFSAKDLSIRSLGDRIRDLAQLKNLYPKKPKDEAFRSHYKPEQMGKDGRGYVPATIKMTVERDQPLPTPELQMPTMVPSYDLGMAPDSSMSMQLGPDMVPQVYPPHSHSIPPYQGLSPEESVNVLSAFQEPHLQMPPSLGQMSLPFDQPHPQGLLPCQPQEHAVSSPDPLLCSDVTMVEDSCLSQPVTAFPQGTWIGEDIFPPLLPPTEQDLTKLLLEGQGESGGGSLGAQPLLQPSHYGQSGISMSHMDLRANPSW
Put plainly: Stat6 Degrader Assay (HiBiT based, HeLa LgBiT clone 4.14). It counts as cell-based. Particulars: HeLa LgBiT clone 4.14 HiBiT-STAT6, 4-24 h incubation; values given for compounds with >80% Emax; geometric mean; read-out: STAT6 degradation DC50. Summed up:
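Luminescence from HiBiT-STAT6 complementing stably expressed LgBiT in HeLa clone 4.14 reports remaining STAT6 protein. Cells (5000/well) exposed to compound for 4-24 h at 37° C; read 0.5 h after Nano-Glo addition. 100% degradation window set with 50 μM terfenadine; percent degradation plotted against concentration.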
Background: With HiBiT, luminescence reflects the tagged protein that the partner subunit can reach.

Assay [1] concerns Eotaxin-3 release in human whole blood stimulated with IL-4. Put plainly: Human Whole Blood Eotaxin-3 Assay (IL-4 stimulated eotaxin-3 release). It counts as cell-based. As to conditions: IL-4 stimulation, 48 h, values given for compounds with >80% Emax, geometric mean. Summed up: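 Eotaxin-3 (CCL26) release measured by MSD kit in plasma supernatant after 48 h IL-4 stimulation ([…]) of human whole blood. Compounds added in triplicate 4-fold dilutions 2 h before stimulation; 0.5% DMSO final, 37° C, 5% CO2.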

For orientation: DC50 means the midpoint of the concentration-degradation curve. One may read the EC50 as the concentration at which the effect is half-maximal. Regarding `CNc1cc(=O)n(-c2ccnc3c2cc(CN2CC=C(c4c(F)cc(C(=O)N5CCC(CN6CCN(Cc7ccc8c(c7)n(C7CC7)c(=O)n8C7CCC(=O)NC7=O)C[C@@H]6C)CC5)cc4F)CC2)n3C)cc1F` (stereo partly drawn) [Example 3u213, 3-(3-cyclopropyl-5-(((S)-4-((1-(3,5-difluoro-4-(1-((4-(5-fluoro-4-(methylamino)-2-oxopyridin-1 (2H)-yl)-1-methyl-1H-pyrrolo[2,3-b]pyridin-2-yl)methyl)-1,2,3,6-tetrahydropyridin-4-yl)benzoyl)piperidin-4-yl)methyl)-3-methylpiperazin-1-yl)methyl)-2-oxo-2,3-dihydro-1H-benzo[d]imidazol-1-yl)piperidine-2,6-dione], the DC50 at STAT6 was 8.6 nM. In addition, a half-maximal response in assay [1] (EC50) required 13.2 nM.
With `CNc1ccn(-c2ccnc3c2cc(CN2CCC(c4c(F)cc(C(=O)N5CCC(CN6CCN(Cc7ccc8c(c7)n(C7CC7)c(=O)n8C7CCC(=O)NC7=O)C[C@@H]6C)CC5)cc4F)CC2)n3C)c(=O)c1` (stereo partly drawn) [Example 3u216, 3-(3-cyclopropyl-5-(((S)-4-((1-(3,5-difluoro-4-(1-((1-methyl-4-(4-(methylamino)-2-oxopyridin-1 (2H)-yl)-1H-pyrrolo[2,3-b]pyridin-2-yl)methyl)piperidin-4-yl)benzoyl)piperidin-4-yl)-methyl)-3-methylpiperazin-1-yl)methyl)-2-oxo-2,3-dihydro-1H-benzo[d]imidazol-1-yl)piperidine-2,6-dione], the DC50 at STAT6 was found to be 3.5 nM. It took 1.5 nM to reach a half-maximal effect in assay [1] (EC50).
The corresponding values for `CNc1cc(=O)n(-c2ccnc3c2cc(CN2CCC(c4c(F)cc(C(=O)N5CCC(CN6CCN(Cc7ccc8c(c7)C7(CC7)C(=O)N8C7CCC(=O)NC7=O)C[C@@H]6C)CC5)cc4F)CC2)n3C)cc1F` (stereo partly drawn) [Example 3u219, 3-(5′-(((S)-4-((1-(3,5-difluoro-4-(1-((4-(5-fluoro-4-(methylamino)-2-oxopyridin-1 (2H)-yl)-1-methyl-1H-pyrrolo[2,3-b]pyridin-2-yl)methyl)piperidin-4-yl)benzoyl)piperidin-4-yl)methyl)-3-methylpiperazin-1-yl)methyl)-2′-oxospiro[cyclopropane-1,3′-indolin]-1′-yl)piperidine-2,6-dione] are 1.8 nM and 2.2 nM.
The corresponding values for `CNc1ccn(-c2ccnc3c2cc(CN2CCC(c4c(F)cc(C(=O)N5CCC(CN6CCN(Cc7ccc8c(c7)C7(CC7)C(=O)N8C7CCC(=O)NC7=O)C[C@@H]6C)CC5)cc4F)CC2)n3C)c(=O)c1` (stereo partly drawn) [Example 3u222, 3-(5′-(((S)-4-((1-(3,5-difluoro-4-(1-((1-methyl-4-(4-(methylamino)-2-oxopyridin-1 (2H)-yl)-1H-pyrrolo[2,3-b]pyridin-2-yl)methyl)piperidin-4-yl)benzoyl)piperidin-4-yl)methyl)-3-methylpiperazin-1-yl)methyl)-2′-oxospiro[cyclopropane-1,3′-indolin]-1′-yl)piperidine-2,6-dione] are 1.5 nM and 1.1 nM.
The corresponding values for `CNc1ccn(-c2ccnc3c2cc([C@H](C)N2CC=C(c4c(C)cc(C(=O)N(C)c5ccc(C6CCN(Cc7ccc8c(c7)n(C)c(=O)n8C7CCC(=O)NC7=O)CC6)cc5)cc4F)CC2)n3C)c(=O)c1` (stereo partly drawn) [Example 3u225, N-(4-(1-((1-(2,6-dioxopiperidin-3-yl)-3-methyl-2-oxo-2,3-dihydro-1H-benzo[d]-imidazol-5-yl)methyl)piperidin-4-yl)phenyl)-3-fluoro-N,5-dimethyl-4-(1-((S)-1-(1-methyl-4-(4-(methyl-amino)-2-oxopyridin-1 (2H)-yl)-1H-pyrrolo[2,3-b]pyridin-2-yl)ethyl)-1,2,3,6-tetrahydropyridin-4-yl)-benzamide] are 0.1 nM and 0.3 nM.
With `CNc1ccn(-c2ccnc3c2cc(CN2CC=C(c4c(C)cc(C(=O)N(C)c5ccc(C6CCN(Cc7ccc8c(c7)C(C)(C)C(=O)N8C7CCC(=O)NC7=O)CC6)cc5)cc4F)CC2)n3C)c(=O)c1` (stereo not shown) [Example 3u228, N-(4-(1-((1-(2,6-dioxopiperidin-3-yl)-3,3-dimethyl-2-oxoindolin-5-yl)methyl)-piperidin-4-yl)phenyl)-3-fluoro-N,5-dimethyl-4-(1-((1-methyl-4-(4-(methylamino)-2-oxopyridin-1 (2H)-yl)-1H-pyrrolo[2,3-b]pyridin-2-yl)methyl)-1,2,3,6-tetrahydropyridin-4-yl)benzamide], the DC50 at STAT6 came out at 0.2 nM. This compound also had an EC50 in assay [1] of 1.2 nM.
The corresponding values for `CNc1ccn(-c2ccnc3c2cc([C@H](C)N2CC=C(c4c(C)cc(C(=O)N(C)c5ccc(C6CCN(Cc7ccc8c(c7)n(C)c(=O)n8C7CCC(=O)NC7=O)CC6)nc5)cc4F)CC2)n3C)c(=O)c1` (stereo partly drawn) [Example 3u231, N-(6-(1-((1-(2,6-dioxopiperidin-3-yl)-3-methyl-2-oxo-2,3-dihydro-1H-benzo[d]-imidazol-5-yl)methyl)piperidin-4-yl)pyridin-3-yl)-3-fluoro-N,5-dimethyl-4-(1-((S)-1-(1-methyl-4-(4-(methylamino)-2-oxopyridin-1 (2H)-yl)-1H-pyrrolo[2,3-b]pyridin-2-yl)ethyl)-1,2,3,6-tetrahydropyridin-4-yl)benzamide] are 0.1 nM and 0.8 nM.
For `CNc1ccn(-c2ccnc3c2cc([C@H](C)N2CC=C(c4c(C)cc(C(=O)N(C)c5ccc(C6CCN(Cc7ccc8c(c7)C(C)(C)C(=O)N8C7CCC(=O)NC7=O)CC6)cc5)cc4F)CC2)n3C)c(=O)c1` (stereo partly drawn) [Example 3u232, N-(4-(1-((1-(2,6-dioxopiperidin-3-yl)-3,3-dimethyl-2-oxoindolin-5-yl)methyl)-piperidin-4-yl)phenyl)-3-fluoro-N,5-dimethyl-4-(1-((S)-1-(1-methyl-4-(4-(methylamino)-2-oxopyridin-1 (2H)-yl)-1H-pyrrolo[2,3-b]pyridin-2-yl)ethyl)-1,2,3,6-tetrahydropyridin-4-yl)benzamide] the same measures were 0.1 nM and 0.8 nM.
The corresponding values for `CNc1cc(=O)n(-c2ccnc3c2cc([C@H](C)N2CC=C(c4c(C)cc(C(=O)N(C)c5ccc(C6CCN(Cc7ccc8c(c7)C(C)(C)C(=O)N8C7CCC(=O)NC7=O)CC6)cc5)cc4F)CC2)n3C)cc1F` (stereo partly drawn) [Example 3u233, N-(4-(1-((1-(2,6-dioxopiperidin-3-yl)-3,3-dimethyl-2-oxoindolin-5-yl)methyl)piperidin-4-yl)phenyl)-3-fluoro-4-(1-((S)-1-(4-(5-fluoro-4-(methylamino)-2-oxopyridin-1 (2H)-yl)-1-methyl-1H-pyrrolo[2,3-b]pyridin-2-yl)ethyl)-1,2,3,6-tetrahydropyridin-4-yl)-N,5-dimethylbenzamide] are 0.2 nM and 1.3 nM.
On to `CNc1cc(=O)n(-c2ccnc3c2cc([C@H](C)N2CC=C(c4c(C)cc(C(=O)N(C)c5ccc(C6CCN(Cc7ccc8c(c7)C7(CC7)C(=O)N8C7CCC(=O)NC7=O)CC6)cc5)cc4F)CC2)n3C)cc1F` (stereo partly drawn) [Example 3u236, N-(4-(1-((1′-(2,6-dioxopiperidin-3-yl)-2′-oxospiro[cyclopropane-1,3′-indolin]-5′-yl)methyl)piperidin-4-yl)phenyl)-3-fluoro-4-(1-((S)-1-(4-(5-fluoro-4-(methylamino)-2-oxopyridin-1 (2H)-yl)-1-methyl-1H-pyrrolo[2,3-b]pyridin-2-yl)ethyl)-1,2,3,6-tetrahydropyridin-4-yl)-N,5-dimethylbenzamide], for which, on STAT6, the DC50 is 0.1 nM. Besides, a half-maximal response in assay [1] (EC50) required 0.9 nM.
For `CNc1cc(=O)n(-c2ccnc3c2cc([C@H](C)N2CC=C(c4c(C)cc(C(=O)N(C)c5ccc(N6CCN(Cc7ccc8c(c7)n(C)c(=O)n8C7CCC(=O)NC7=O)CC6)nc5)cc4F)CC2)n3C)cc1F` (stereo partly drawn) [Example 3u237, N-(6-(4-((1-(2,6-dioxopiperidin-3-yl)-3-methyl-2-oxo-2,3-dihydro-1H-benzo[d]-imidazol-5-yl)methyl)piperazin-1-yl)pyridin-3-yl)-3-fluoro-4-(1-((S)-1-(4-(5-fluoro-4-(methylamino)-2-oxopyridin-1 (2H)-yl)-1-methyl-1H-pyrrolo[2,3-b]pyridin-2-yl)ethyl)-1,2,3,6-tetrahydropyridin-4-yl)-N,5-dimethylbenzamide] the same measures were 0.1 nM and 1.7 nM.
